ChEMBL document CHEMBL5120927, “LEGO-Lipophosphonoxins: A Novel Approach in Designing Membrane Targeting Antimicrobials” (J Med Chem, 2022)
Calls of active or inactive are those of the source. No cut-off for these calls is given here.

Legend:
Staphylococcus aureus [1] = assay: Antibacterial activity against wild type Staphylococcus aureus 4502/A assessed as reduction in microbial growth incubated for 24 hrs by microdilution assay; type: functional
Staphylococcus aureus [2] = assay: Bactericidal activity against Staphylococcus aureus CCM 4223 assessed as reduction in viable cell count measured after 24 hrs by Time kill assay; type: functional, organism-based; conditions: DDE = dose-dependent effect
Staphylococcus aureus [3] = assay: Antibacterial activity against […] Staphylococcus aureus 4463/A assessed as reduction in microbial growth incubated for 24 hrs by microdilution assay; type: functional
Staphylococcus aureus [4] = assay: Antibacterial activity against wild type Staphylococcus aureus 4738/B assessed as reduction in microbial growth incubated for 24 hrs by microdilution assay; type: functional
[5] = Hemolytic activity in human RBC assessed as haemoglobin release measured after 3 hr; type: toxicity, cell-based, Erythrocyte; conditions: red blood cells (erythrocytes)
Staphylococcus aureus [6] = assay: Antibacterial activity against Staphylococcus aureus ATCC 29213 = CCM 4223 assessed as inhibition of bacterial growth incubated for 24 hrs by microdilution assay; type: functional
Cell membrane = assay: Induction of cell envelope damage in Staphylococcus aureus assessed as loss of cell integrity at 8 mg/L measured after 8 hrs by scanning electron microscope analysis; type: subcellular
Staphylococcus aureus [7] = assay: Antibacterial activity against wild type Staphylococcus aureus 4904/C assessed as reduction in microbial growth incubated for 24 hrs by microdilution assay; type: functional
Lipid bilayer = assay: Induction of membrane disruption of bacterial inner membrane mimic DOPE/DOPG (2:1) large unilamellar vesicles assessed as carboxyfluorescein leakage at 2.5 mg/L measured after 90 mins by spectrofluorometer analysis
Staphylococcus aureus [8] = assay: Antibacterial activity against wild type Staphylococcus aureus 4679/B assessed as reduction in microbial growth incubated for 24 hrs by microdilution assay; type: functional
[9] = Gradient chromatographic hydrophobicity index of the compound at pH 3.7 by HPLC analysis; type: ADME
Staphylococcus aureus [10] = assay: Antibacterial activity against wild type Staphylococcus aureus 78/CF assessed as reduction in microbial growth incubated for 24 hrs by microdilution assay; type: functional
Staphylococcus aureus [11] = assay: Antibacterial activity against wild type Staphylococcus aureus 4968/C assessed as reduction in microbial growth incubated for 24 hrs by microdilution assay; type: functional
Staphylococcus aureus [12] = assay: Antibacterial activity against wild type Staphylococcus aureus 4740/B assessed as reduction in microbial growth incubated for 24 hrs by microdilution assay; type: functional

For `CCCCCCCCOP(=O)(CCN(CCCN)CCCN)OCCCCCCOP(=O)(CCN(CCCN)CCCN)OCCCCCCCC.Cl.Cl.Cl.Cl.Cl.Cl` (centres undefined), the MIC (Staphylococcus aureus [1]) was 1 µg/mL, the Activity (Staphylococcus aureus [2]) was “Dde” and the MIC (Staphylococcus aureus [3]) was 1 µg/mL. It also gave an MIC (Staphylococcus aureus [4]) of 0.5 µg/mL, an HC50 at 3 h [5] of 162 µg/mL and an MIC (Staphylococcus aureus [6]) of 0.5 µg/mL. The Activity (Cell membrane) was “Active”, the MIC (Staphylococcus aureus [7]) was 0.5 µg/mL and the Activity (Lipid bilayer) was “Active”. For the same compound, the MIC (Staphylococcus aureus [8]) was 0.5 µg/mL, the CHI [9] was 36.9 and the MIC (Staphylococcus aureus [10]) was 1 µg/mL. For the same compound, the MIC (Staphylococcus aureus [11]) was 1 µg/mL and the MIC (Staphylococcus aureus [12]) was 0.5 µg/mL.
